According to US20030211636A1, “Point of care test for measurement of therapeutic drug levels” (Pfizer Inc., priority 2002, published 2003):
Like-named read-outs stand apart in the source and are kept apart here.

Tests used:
[1] = Compound 122 saliva concentrations in healthy human subjects after oral administration (HPLC-MS/MS); assay type: in vivo; details: for concentration at 2 h / concentration at 4 h / concentration at 8 h / concentration at 24 h / concentration at 0 h: human, saliva, po
Procedure: (§1) Stock solutions of Compound 122-HCl salt and internal standard 2-difluoromethoxy-5-trifluoromethoxy-benzyl)-(2-phenyl-piperidin-3-yl)-amine] HCl salt (hereinafter referred to as IS, for internal standard) were prepared at concentrations of 100 μg/ml in 1:1 Methanol/Water and stored at −20° C. […] Serial dilutions of the stock solutions were prepared in 1:1 Methanol/Water as needed. Standard curve samples were freshly prepared using serial dilutions of stock so that equivalent additions produced 0.1, 0.2, 0.5, 2, 10, and 50 ng/ml solutions in Control Human Saliva (CHS). Quality control samples were prepared from a different stock solution similarly at 0.15, 5, and 40 ng/ml in CHS.
Aliquots (50 μl) of Human saliva, 200 μl of 0.1% Ammonium Hydroxide and 50 μl of 2.0 ng/ml IS were added, in sequence, to one well of a 96 well block. The plate was centrifuged briefly to consolidate the above contents and placed onto a TomTec Quadra 96. An automatic program was used that performs the following steps: conditions a Waters brand 10 mg Oasis HLB plate with 100 μl Methanol and then 200 μl 50/50 Methanol/Water (containing 2% v/v Ammonium Hydroxide), transfers the 300 μl of sample to the plate, washes the plate with 400 μl of 50/50 Methanol/Water (containing 2% v/v Ammonium Hydroxide) and then elutes the drug and IS into a clean 96 deep well block with 200 μl of 70/30 Methanol/Water (containing 2% v/v Acetic Acid). The eluent was isolated, evaporated to dryness under a stream of Nitrogen, and reconstituted in 100 μl 60/40 Methanol/10 mM Ammonium Acetate (both containing 0.05% Formic Acid) and vortexed for approximately 30 seconds. The plate was then centrifuged for ˜1 minute at about 3000 RPM. Injection volumes introduced into HPLC system were typically […].
The mobile phase was a binary mixture (60/40) of Methanol and 10 mM Ammonium Acetate (both containing 0.05% Formic Acid). The analytical column was a Phenomenex LUNA Phenyl Hexyl, 5μ, 2.00×50 mm LC/MS column preceded by a 2.0 micron stainless steel precolumn filter. A Hewlett Packard 1100 series quaternary pump was used and a mobile phase flow rate of 0.30 ml/min was maintained. A CTC Analytics (LEAP) HTS PAL autosampler injected the 10 μl sample aliquots onto the column at approximately 3 minute intervals.
The analysis was performed on a Perkin Elmer SCIEX API 3000 triple quadrupole mass spectrometer operated in the positive ion mode. The effluent from the HPLC column was directly introduced into the TurbolonSpray ion source, which was operated at 1500V with a temperature of 375° C. and 6 L/sec nitrogen gas. Nitrogen nebulizer gas was set to 10 and curtain gas was set to 9. Analyte and IS responses were measured using multiple reaction monitoring (MRM). Protonated molecular ions for drug (m/z 381.4), and I.S. (m/z 417.1) were dissociated by collision with nitrogen. Collision gas (CAD) was set to 5 and a collision energy of 32 eV was used. Product ions at m/z 160.0 were monitored for both drug and IS runs.
Subjects were divided into three groups of six individuals: CYP2D6 extensive metabolizers (including one “intermediate” metabolizer), CYP2D6 extensive metabolizers receiving concurrent paroxetine as an inhibitor of CYP2D6 (also including one intermediate metabolizer), and CYP2D6 poor metabolizers. […] Saliva samples were collected on the first day of each study leg.
Samples were subjected to a solid phase extraction procedure followed by chromatography and analysis on a Sciex API3000 tandem quadrupole mass spectrometer.
Mean values were calculated in those cases in which half or greater of the individual values were >LLOQ. A value of zero was used in those cases wherein concentrations were <LLOQ. […] Cav is defined by AUC (0-24 hr)/24.

[2] = Stability of Compound 122 stock solution; assay type: physicochemical; details: HCl salt, 100 μg/ml in 1:1 Methanol/Water, stored at −20° C.
Procedure: as §1

[3] = 10 mg, EM + paroxetine, Day 1, 10 mg q.d. oral, read-out: Mean saliva concentration, EM + paroxetine, Mean ± SD
[4] = 10 mg, EM + paroxetine, Day 6, 10 mg b.i.d. oral, read-out: Mean saliva concentration, EM + paroxetine, Mean ± SD
[5] = 10 mg, EM, Day 1, 10 mg q.d. oral, read-out: Mean saliva concentration, EM, Mean ± SD
[6] = 10 mg, EM, Day 6, 10 mg b.i.d. oral, read-out: Mean saliva concentration, EM, Mean ± SD
[7] = 10 mg, PM, Day 1, 10 mg q.d. oral, read-out: Mean saliva concentration, PM, Mean ± SD
[8] = 10 mg, PM, Day 6, 10 mg b.i.d. oral, read-out: Mean saliva concentration, PM, Mean ± SD
[9] = 30 mg, EM + paroxetine, Day 11, 30 mg q.d. oral, read-out: Mean saliva concentration, EM + paroxetine, Mean ± SD
[10] = 30 mg, EM + paroxetine, Day 16, 30 mg b.i.d. oral, read-out: Mean saliva concentration, EM + paroxetine, Mean ± SD
[11] = 30 mg, EM, Day 11, 30 mg q.d. oral, read-out: Mean saliva concentration, EM, Mean ± SD
[12] = 30 mg, EM, Day 16, 30 mg b.i.d. oral, read-out: Mean saliva concentration, EM, Mean ± SD
[13] = 30 mg, PM, Day 11, 30 mg q.d. oral, read-out: Mean saliva concentration, PM, Mean ± SD
[14] = 30 mg, PM, Day 16, 30 mg b.i.d. oral, read-out: Mean saliva concentration, PM, Mean ± SD
[15] = 100 mg, EM + paroxetine, Day 21, 100 mg q.d. oral, read-out: Mean saliva concentration, EM + paroxetine, Mean ± SD
[16] = 100 mg, EM, Day 21, 100 mg q.d. oral, read-out: Mean saliva concentration, EM, Mean ± SD
[17] = 100 mg, PM, Day 21, 100 mg q.d. oral, read-out: Mean saliva concentration, PM, Mean ± SD

With COc1ccc(OC(F)(F)F)cc1CNC1CCCNC1c1ccccc1 (centres unmarked) [Compound 122, (2-methoxy-5-trifluoromethoxy-benzyl)-(2-phenyl-piperidin-3-yl)-amine] the “mean salivary Cav” value ([1]; 30 mg b.i.d., Cav = AUC (0-24 hr)/24) was 4.04 ng/mL, the “serum Cav corresponding to salivary Cav” value ([1]; 30 mg b.i.d., salivary Cav divided by fu) was 58 ng/mL and the concentration at 2 h [1, 3] was 0.5 ± 0.462 ng/mL. It also gave a concentration at 4 h [1, 3] of 0.632 ± 0.773 ng/mL, a concentration at 8 h [1, 3] of 0.533 ± 0.722 ng/mL and a concentration at 24 h [1, 3] of 0.192 ± 0.332 ng/mL. The concentration at 0 h [1, 4] was 3.21 ± 5.09 ng/mL, the concentration at 2 h [1, 4] was 1.92 ± 1.83 ng/mL and the concentration at 4 h [1, 4] was 2.97 ± 2.16 ng/mL. For the same compound, the concentration at 8 h [1, 4] was 5.68 ± 9.27 ng/mL, the concentration at 24 h [1, 4] was 2.16 ± 1.27 ng/mL and the concentration at 2 h [1, 5] was 0.545 ± 0.518 ng/mL. It also gave a concentration at 4 h [1, 5] of 0.524 ± 0.293 ng/mL, a concentration at 8 h [1, 5] of 0.313 ± 0.164 ng/mL and a concentration at 0 h [1, 6] of 0.27 ± 0.454 ng/mL. It also gave a concentration at 2 h [1, 6] of 0.541 ± 0.465 ng/mL, a concentration at 4 h [1, 6] of 0.987 ± 0.915 ng/mL and a concentration at 8 h [1, 6] of 0.805 ± 1.18 ng/mL. For the same compound, the concentration at 24 h [1, 6] was 0.418 ± 0.426 ng/mL, the concentration at 2 h [1, 7] was 0.517 ± 0.261 ng/mL and the concentration at 4 h [1, 7] was 2.23 ± 1.06 ng/mL. It also gave a concentration at 8 h [1, 7] of 2.31 ± 1.32 ng/mL, a concentration at 24 h [1, 7] of 1.05 ± 0.558 ng/mL and a concentration at 0 h [1, 8] of 2.93 ± 2.45 ng/mL. The concentration at 2 h [1, 8] was 2.85 ± 2.18 ng/mL, the concentration at 4 h [1, 8] was 4.69 ± 3.28 ng/mL and the concentration at 8 h [1, 8] was 3.23 ± 2.8 ng/mL. It also gave a concentration at 24 h [1, 8] of 5.51 ± 4.39 ng/mL, a concentration at 0 h [1, 9] of 3.86 ± 1.57 ng/mL and a concentration at 2 h [1, 9] of 5.98 ± 2.9 ng/mL. It also gave a concentration at 4 h [1, 9] of 9.51 ± 3.07 ng/mL, a concentration at 8 h [1, 9] of 6.3 ± 1.69 ng/mL and a concentration at 24 h [1, 9] of 5.59 ± 2.28 ng/mL. It also gave a concentration at 0 h [1, 10] of 6.16 ± 4.58 ng/mL, a concentration at 2 h [1, 10] of 9.11 ± 5.4 ng/mL and a concentration at 4 h [1, 10] of 10 ± 6 ng/mL. It also gave a concentration at 8 h [1, 10] of 9.69 ± 4.74 ng/mL, a concentration at 24 h [1, 10] of 9.67 ± 5.91 ng/mL and a concentration at 0 h [1, 11] of 1.16 ± 1.81 ng/mL. For the same compound, the concentration at 2 h [1, 11] was 3.07 ± 2.77 ng/mL, the concentration at 4 h [1, 11] was 4.03 ± 4.1 ng/mL and the concentration at 8 h [1, 11] was 3.18 ± 2.99 ng/mL. For the same compound, the concentration at 24 h [1, 11] was 1.92 ± 3.13 ng/mL, the concentration at 0 h [1, 12] was 2.44 ± 4.17 ng/mL and the concentration at 2 h [1, 12] was 2.91 ± 2.49 ng/mL. For the same compound, the concentration at 4 h [1, 12] was 4.57 ± 3.03 ng/mL, the concentration at 8 h [1, 12] was 3.44 ± 3.67 ng/mL and the concentration at 24 h [1, 12] was 5.08 ± 7.08 ng/mL. For the same compound, the concentration at 0 h [1, 13] was 8.31 ± 6.8 ng/mL, the concentration at 2 h [1, 13] was 6.96 ± 3.73 ng/mL and the concentration at 4 h [1, 13] was 11.1 ± 8.5 ng/mL. It also gave a concentration at 8 h [1, 13] of 14 ± 9.7 ng/mL, a concentration at 24 h [1, 13] of 11.8 ± 9.3 ng/mL and a concentration at 0 h [1, 14] of 15 ± 10.9 ng/mL. The concentration at 2 h [1, 14] was 11.4 ± 6.5 ng/mL, the concentration at 4 h [1, 14] was 12.9 ± 7.5 ng/mL and the concentration at 8 h [1, 14] was 13.3 ± 9.9 ng/mL. The concentration at 24 h [1, 14] was 21.5 ± 18.4 ng/mL, the concentration at 24 h ([1]; 100 mg q.d., EM + paroxetine, Day 21, 100 mg q.d. oral, read-out: Mean saliva concentration, EM + paroxetine, Mean ± SD) was 15.7 ± 8.8 ng/mL and the concentration at 24 h ([1]; 100 mg q.d., EM, Day 21, 100 mg q.d. oral, read-out: Mean saliva concentration, EM, Mean ± SD) was 12.5 ± 15.4 ng/mL. For the same compound, the concentration at 24 h ([1]; 100 mg q.d., PM, Day 21, 100 mg q.d. oral, read-out: Mean saliva concentration, PM, Mean ± SD) was 46.4 ± 27.1 ng/mL, the concentration at 0 h [1, 15] was 12.2 ± 2.7 ng/mL and the concentration at 2 h [1, 15] was 35.5 ± 24.7 ng/mL. It also gave a concentration at 4 h [1, 15] of 44.1 ± 32.3 ng/mL, a concentration at 8 h [1, 15] of 27.2 ± 10 ng/mL and a concentration at 0 h [1, 16] of 6.94 ± 6.81 ng/mL. It also gave a concentration at 2 h [1, 16] of 19.1 ± 16.6 ng/mL, a concentration at 4 h [1, 16] of 21.2 ± 13.6 ng/mL and a concentration at 8 h [1, 16] of 14.6 ± 8.6 ng/mL. It also gave a concentration at 0 h [1, 17] of 32.9 ± 17.1 ng/mL, a concentration at 2 h [1, 17] of 23.1 ± 12.1 ng/mL and a concentration at 4 h [1, 17] of 46.2 ± 29.1 ng/mL. For the same compound, the concentration at 8 h [1, 17] was 41.3 ± 26.2 ng/mL and the “stock solution stable over period” value [2] was no less than 93 days.
